Source: patent US8084221B2, “Method of screening for a drug candidate that increases ATP release from RBCs stimulated via the Gs or Gi pathway” (Saint Louis University, priority 2006, dated 2011)
“Also recorded” adds a separate entry of the source. Blank lines part the entries; values can stand above or below the molecule they belong to.

Assays:
PDE4 = conditions: reported in reference [54]; cited from earlier work
human erythrocytes [1] = experiment: cAMP concentration in human erythrocytes (EIA); format: cell-based; conditions: for cAMP production / synthesis on incubation with activator: activator of Gs or Gi alone; for Mas7-induced cAMP accumulation in the presence of insulin: MAS7 10 μM, insulin pre-incubation; for cAMP accumulation in response to Gs/Gi activation or reduced O2 tension, in the presence of insulin: insulin at concentrations reported in plasma of humans with prediabetes
Protocol: (§1) Erythrocytes (20% hct) were incubated with Mastoparan 7 (10 μM) or its vehicle in the presence or absence of 1 uM insulin. ATP release from erythrocytes was measured at 5 minute intervals using the luciferan/luciferase assay. In separate studies, erythrocytes (50% hct) were incubated with vehicle, 10 uM cilostazol, 100 μM cilostazol, […], 3 uM insulin, and/or 10 uM Mastoparan 7 for determination of cAMP concentration. At timed intervals, 4 mL of ice cold ethanol containing 1 mM HCl was added to 1 mL of RBC suspension. After centrifugation at 14,000×g at 4° C. for 10 min., the supernatant was dried under vacuum. Samples were resuspended in assay buffer and cAMP concentration was determined in duplicate by EIA.
(§2) Protocol A: Washed erythrocytes are incubated with insulin (0.1 nM-1 μM, Humalog®), or its vehicle (saline) for 30 min [28, 29, 47, 60]. Erythrocytes are incubated with either iloprost (1 μM), isoproterenol (10 μM) (receptor-mediated activators of Gs) or mastoparan 7 (MAS7, 10 μM) (a direct activator of Gi) or their vehicle (saline). After 15 min, cAMP accumulation and ATP release will be determined.
After 30 min, the cells were incubated with either iloprost (1 μM), isoproterenol (10 μM), MAS7 (10 μM) or exposed to reduce O2 tension and cAMP accumulation and ATP release was determined. Control experiments: Identical experiments were performed with the vehicles for the various inhibitors. […] The concentrations chosen for rolipram and sildenafil PDE are those reported to be specific for the PDEs indicated.
Measurement of cAMP: 1 ml of erythrocyte suspension was added to 4 ml of ice cold ethanol containing 1 mM HCl and the mixture was centrifuged at 21,000×g for 10 minutes at 4° C. The supernatant was removed and stored overnight at −20° C. to precipitate remaining proteins. Samples were centrifuged a second time at 3,700×g for 10 minutes at 4° C. The supernatant was removed and dried under vacuum centrifugation. Concentrations of cAMP were determined by EIA.

[2] = tested on: RBCs derived from humans having type 2 diabetes; experiment: MAS7-induced ATP release by RBCs from humans with type 2 diabetes; format: cell-based, human; conditions: type 2 diabetic RBCs, stimulation via the Gi pathway (MAS7), compared with RBCs of healthy individuals, FIG. 7
Protocol: as §1
(§3) Measurement of ATP: ATP was measured using the luciferin-luciferase assay. A 200 μL sample of an erythrocyte suspension was injected into a cuvette containing 100 μL of 10 mg/ml crude firefly tail extract and 100 μL of a 0.5 mg/ml solution of D-luciferin. The light emitted from the reaction of ATP with the crude firefly tail extract was measured using a luminometer designed to detect a wavelength of 565 nm. The peak light emitted was compared to an ATP standard curve generated on the day of the experiment.

human erythrocytes [3] = experiment: ATP release from human erythrocytes (luciferin-luciferase assay); format: cell-based; conditions: for ATP release on incubation with activator: activator of Gs or Gi alone; for Mas7-induced ATP release in the presence of insulin: MAS7 10 μM, insulin 1 μM pre-incubation; for ATP release in response to Gs/Gi activation or reduced O2 tension, in the presence of insulin: insulin at concentrations reported in plasma of humans with prediabetes
Protocol: as §1, §2
Protocol C: To determine effects of direct activation of adenylyl cyclase and active cAMP analogs on ATP release from erythrocytes in the presence of insulin, washed erythrocytes are incubated with insulin (0.1 nM-1 μM) or its vehicle (saline). After 30 min, the cells are incubated with either the non-selective activator of adenylyl cyclase (AC) activity, forskolin (1 to 10 μM), or one of two active cAMP analogs that are resistant to degradation, SpcAMP (10 to 100 μM) or 8-bromo-cAMP (10 to 100 μM). ATP release will be measured at 5, 10 and 15 min after addition of forskolin or the active cAMP analogs. Controls: To ensure the effects of forskolin or the cAMP analogs are not due to effects of vehicle or time, identical experiments are conducted using their vehicles, N,Ndimethylformamide (DMF) or saline, respectively, in lieu of the active agent. Total intracellular ATP and free hemoglobin, a measurement of erythrocyte lysis, is determined.
as §3
Exposure of Erythrocytes to Reduced Oxygen Tension: Washed erythrocytes were diluted in Krebs buffer containing bicarbonate (4.7 KCl, 2.0 mM CaCl2, 140.5 mM NaCl, 1.2 mM MgSO4) and equilibrated for 30 minutes in a tonometer (15% O2, 5% CO2, balance N2) (normoxia). Erythrocytes were then exposed to hypoxia by changing the equilibrating gas to 5% O2, 5% CO2, balance N2. ATP released from the erythrocytes as well as pH and blood gas tensions were determined at 5, 10 and 15 min after exposure to the various gas tensions. In separate studies, samples were collected into acidified ethanol for cAMP measurement.

human erythrocytes [4] = experiment: Total intracellular ATP of erythrocytes; format: cell-based; conditions: human erythrocytes pre-incubated with insulin 1 μM
Protocol: Measurement of Total Intracellular ATP: A known number of erythrocytes was lysed in distilled water at room temperature. ATP in the lysate, diluted 8,000 fold, was measured using ATP assay and the values normalized to ATP concentration per erythrocyte.

Molecule: O=C1CCc2cc(OCCCCc3nnnn3C3CCCCC3)ccc2N1 [cilostazol]
concentrations inhibiting PDE4 activity relative to those used here (PDE4): ten-fold greater
iloprost-induced cAMP accumulation after cilostazol pre-treatment (human erythrocytes [1]; FIG. 11): concentration-dependent increases
basal cAMP levels (human erythrocytes [1]; in the presence of cilostazol): increased
MAS7-induced ATP release by diabetic RBCs treated with cilostazol [2]: normal levels of ATP
MAS7-induced ATP release by diabetic RBCs treated with cilostazol ([2]; listed as CILO): not significantly different from the levels released by RBCs of healthy individuals

ATP release on incubation with activator (human erythrocytes [3]): stimulate
Molecule: CC#CCC(C)[C@H](O)/C=C/[C@@H]1[C@H]2C/C(=C/CCCC(=O)O)C[C@H]2C[C@H]1O (stereo partly drawn) [iloprost, reference compound]
cAMP production / synthesis on incubation with activator (human erythrocytes [1]): stimulate

ATP release on incubation with activator (human erythrocytes [3]): stimulate
Molecule: CC(C)NCC(O)c1ccc(O)c(O)c1 (stereo not drawn) [isoproterenol, reference compound]
cAMP production / synthesis on incubation with activator (human erythrocytes [1]): stimulate

Molecule: COc1ccc(C2CNC(=O)C2)cc1OC1CCCC1 (stereo not drawn) [rolipram, reference compound]
iloprost-induced cAMP accumulation with rolipram (human erythrocytes [1]; rolipram 30 μM, n=6): no effect

Molecule: Mastoparan 7 [reference compound]
ATP release on incubation with activator (human erythrocytes [3]): ATP release
ATP release on incubation with activator (human erythrocytes [3]; listed as MAS7): stimulate
cAMP production / synthesis on incubation with activator (human erythrocytes [1]): increased cAMP production
cAMP production / synthesis on incubation with activator (human erythrocytes [1]; listed as MAS7): stimulate

Molecule: insulin: insulin incubated with erythrocytes; Humalog or regular human insulin in the protocols
total ATP content (human erythrocytes [4]): absence of changes
Mas7-induced ATP release in the presence of insulin (human erythrocytes [3]; FIG. 9): inhibit; also recorded: decline; also recorded: decreases; also recorded: reduces; also recorded: attenuated
Mas7-induced ATP release in the presence of insulin (human erythrocytes [3]; FIG. 9, listed as Insulin): reduces
ATP release in response to Gs/Gi activation or reduced O2 tension, in the presence of insulin (human erythrocytes [3]): inhibits; also recorded: attenuates
ATP release in response to Gs/Gi activation or reduced O2 tension, in the presence of insulin (human erythrocytes [3]; listed as Insulin): attenuates
ATP release in response to active cAMP analogs resistant to hydrolysis by PDEs, in the presence of insulin (human erythrocytes [3]; insulin pretreatment): no effect
Mas7-induced cAMP accumulation in the presence of insulin (human erythrocytes [1]; FIG. 8): greater at lower (nM) insulin concentrations; also recorded: decline; also recorded: decreases; also recorded: reduces; also recorded: inhibition
Mas7-induced cAMP accumulation in the presence of insulin (human erythrocytes [1]; FIG. 8, listed as Insulin): reduces
cAMP accumulation in response to Gs/Gi activation or reduced O2 tension, in the presence of insulin (human erythrocytes [1]): inhibited; also recorded: limit; also recorded: decreases
cAMP accumulation in response to Gs/Gi activation or reduced O2 tension, in the presence of insulin (human erythrocytes [1]; listed as Insulin): decreases
